Structures can show the parent of a compound that is named as a salt.
Each molecule was assayed against T1, thromboxane synthetase enzyme (Rattus norvegicus, UniProt P49430) (assay: Thromboxane synthetase enzyme inhibition (TXB2 formation in washed platelets, RIA)). Settings: 1×10^-4 Molar; SHR platelets, 10 min at 37° C.; read-out: % Inhibition (Thromboxane Synthetase Enzyme Inhibition).
T1 construct: endogenous in cells; host or cells: washed platelets from arterial blood of male Okamoto-Aoki spontaneously hypertensive rats (animals from Taconic Farms, Germantown, N.Y.)
T1 sequence (P49430 1-533): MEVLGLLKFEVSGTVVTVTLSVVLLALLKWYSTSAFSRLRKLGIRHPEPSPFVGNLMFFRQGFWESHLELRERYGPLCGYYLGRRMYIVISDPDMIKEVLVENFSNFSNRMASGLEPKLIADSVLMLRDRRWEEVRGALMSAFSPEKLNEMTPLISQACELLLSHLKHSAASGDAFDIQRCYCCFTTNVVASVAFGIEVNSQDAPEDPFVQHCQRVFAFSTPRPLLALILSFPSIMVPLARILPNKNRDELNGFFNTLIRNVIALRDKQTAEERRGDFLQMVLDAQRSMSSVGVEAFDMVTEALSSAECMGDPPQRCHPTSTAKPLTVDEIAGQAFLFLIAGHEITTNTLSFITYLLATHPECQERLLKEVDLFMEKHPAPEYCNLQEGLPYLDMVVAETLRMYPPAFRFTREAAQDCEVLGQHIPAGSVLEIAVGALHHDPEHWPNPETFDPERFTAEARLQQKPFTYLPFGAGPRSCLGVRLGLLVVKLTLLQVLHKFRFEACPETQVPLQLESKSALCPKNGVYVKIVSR
Type: cell-based, spontaneously hypertensive rat
Method: The blood was diluted with 3 ml cold saline and centrifuged at room temperature for 15 min at 468×g. The platelet rich plasma (PRP) was separated. The platelets were isolated by certrifuging the PRP for 10 minutes at 1060×g and washed in 4 ml cold oxygenated Krebs phosphate buffer, pH 7.4. The chilled platelets recovered from centrifuging at 800×g for 10 minutes were resuspended in oxygenated Krebs phosphate buffer and diluted to contain 4.0-6.0×10^4 platelets/micro-liters. The inhibition of TX formation was studied by determining the concentration of thromboxane B2 (TXB2), the stable hydrolysis product of TXA2. Assay samples prepared on ice, contained 200 micro-liters platelet suspension, 50 micro-liters saline, and 50 micro-liters […] (saline) or drug under study. The test drug (0.003 mole) was dissolved in 5 ml of saline. […] The assay samples were incubated for 10 minutes at 37° C. in a metabolic shaker at about 60 rpm. The reaction was terminated by immersing the tubes in an ice bath and adding 50 micro-liters of 0.5M citric acid. The samples were centrifuged for 10 minutes at 2000 rpm at 4° C., and the supernatants were decanted.

SMILES	inhibition at 100 µM [%]
Brc1ccc2c3c(cccc13)C(NCCCCCCCCCCn1ccnc1)=N2 [6-Bromo-N-(10-(1H-imidazol-1-yl)decyl)benz(cd)indol-2-amine]	94
Clc1ccc2c3c(cccc13)C(NCCCCCn1ccnc1)=N2 [6-Chloro-N-(5-(1H-imidazol-1-yl)pentyl)benz(cd)indol-2-amine]	100
Clc1ccc(C(Cn2ccnc2)NC2=Nc3cccc4cccc2c34)cc1 (centres unmarked) [N-(1-(4-chlorophenyl)-2-(1H-imidazol-1-yl)ethyl)benz(cd)indol-2-amine, fumarate]	35
Cn1cccc1CCNC1=Nc2cccc3cccc1c23 [N-(2-(1-Methyl-1H-pyrrol-2-yl)ethyl)benz(cd)indol-2-amine, fumarate]	90
c1cc2c3c(cccc3c1)C(NCCn1ccnc1)=N2 [N-(2-(1H-imidazol-1-yl)ethyl)benz(cd)indol-2-amine]	71
c1cc2c3c(cccc3c1)C(NCCOCCn1ccnc1)=N2 [N-(2-(2-(1H-imidazol-1-yl)ethoxy)ethyl)benz(cd)indol-2-amine bis-fumarate]	98
N#CCCN(Cc1ccccn1)C1=Nc2cccc3cccc1c23 [N-(2-Cyanoethyl)-N-(2-pyridinylmethyl)benz(cd)indol-2-amine, dihydrochloride]	97
c1ccc(CNC2=Nc3cccc4cccc2c34)nc1 [N-(2-Pyridinylmethyl)benz(cd)indol-2-amine, fumarate]	95
OC(CNC1=Nc2cccc3cccc1c23)Cn1ccnc1 (centres unmarked) [N-(3-(1H-imidazol-1-yl)-2-hydroxypropyl)benz(cd)indol-2-amine]	88
c1cc2c3c(cccc3c1)C(NCCCn1ccnc1)=N2 [N-(3-(1H-imidazol-1-yl)propyl)benz(cd)indol-2-amine, fumarate]	92
Cc1nccn1CCCNC1=Nc2cccc3cccc1c23 [N-(3-(2-Methyl-1H-imidazol-1-yl)propyl)benz(cd)indol-2-amine, monohydriodide]	82
c1ccc(-c2nccn2CCCNC2=Nc3cccc4cccc2c34)cc1 [N-(3-(2-Phenyl-1H-imidazol-1-yl)propyl)benz(cd)indol-2-amine, hydriodide]	100
CC(CCNC1=Nc2cccc3cccc1c23)c1ccncc1 (centres unmarked) [N-(3-(4-pyridinyl)butyl)benz(cd)indol-2-amine]	95
c1cncc(CNC2=Nc3cccc4cccc2c34)c1 [N-(3-Pyridinylmethyl)benz(cd)indol-2-amine, fumarate]	68

Same assay, conditions: read-out: % Inhibition (Thromboxane Synthetase Enzyme Inhibition), 1×10^-4 Molar; SHR platelets, 10 min at 37° C.

SMILES	inhibition at 100 µM [%]
c1cc2c3c(cccc3c1)C(NCCCCn1ccnc1)=N2 [N-(4-(1H-imidazol-1-yl)butyl)benz(cd)indol-2-amine monobutanedioic acid salt]	93

What follows are molecules tested on spontaneously hypertensive rats (assay: Hypotensive activity in spontaneously hypertensive rats (MABP)). Settings: SHR, gavage, two doses of 10 mg/kg or less 24 h apart, MABP at 28 h; average baseline 160±1.5 mm Hg.
Type: in vivo, rat (Okamoto strain)
Method: The novel compounds of the present invention are active hypotensive agents and were tested for hypotensive activity by the method of P. S. Chan and D. Poorvin, Clinical and Experimental Hypertension, 1 (6), 817-830 (1979). Male, 16 week old, spontaneously hypertensive rats of the Okamoto strain, from Taconic Farms, Germantown, N.Y., having an average mean arterial blood pressure of 160±1.5 mm of mercury, were used in the test. One to 4 rats were used per test compound. A rat was dosed by gavage with a test compound, suspended in 2% pre-boiled starch at a concentration of 50 mg/ml, at a doses of 10 mg/kg of body weight or less, with 0.9% sodium chloride loading at a dose of 25 ml/kg of body weight. A second identical dose of the test compound, without sodium chloride loading was given 24 hours later. At 28 hours after initial dose the mean arterial blood pressure (MABP) was measured. The procedure was repeated in a second and third rat when necessary.

SMILES	Avg. MABP in mm Hg (No. of Rats) [mm Hg]
c1cc2c3c(cccc3c1)C(NOCCCCn1ccnc1)=N2 [N-(4-(1H-imidazol-1-yl)butoxy)benz(cd)indol-2-amine]	111
C[N+]1=C(NCCCCn2cc[n+](C)c2)c2cccc3cccc1c23.[I-].[I-] [N-(4-(1H-imidazol-1-yl)butyl)benz(cd)indol-2-amine dimethiodide]	110
c1cc2c3c(cccc3c1)C(NCCCCn1ccnc1)=N2 [N-(4-(1H-imidazol-1-yl)butyl)benz(cd)indol-2-amine, hydriodide]	74
c1cncc(CCCCNC2=Nc3cccc4cccc2c34)c1 [N-(4-(3-Pyridinyl)butyl)benz(cd)indol-2-amine sesqui-fumarate]	95
C(=Cc1cccnc1)CCCNC1=Nc2cccc3cccc1c23 [N-(5-(3-Pyridinyl)-4-pentenyl)benz(cd)indol-2-amine sesqui-fumarate]	140
c1cc2c3c(cccc3c1)C(NCCCCCCCn1ccnc1)=N2 [N-(7-(1H-imidazol-1-yl)heptyl)benz(cd)indol-2-amine]	127
Cl.Cl.c1cc2c3c(cccc3c1)C(NCCCCCCCCCCn1ccnc1)=N2 [N-(10-(1H-imidazol-1-yl)decyl)benz(cd)indol-2-amine, dihydrochloride]	124
O=C(c1ccco1)N(CCCCn1ccnc1)C1=Nc2cccc3cccc1c23 [N-(Benz(cd)indol-2-yl)-N-(4-(1H-imidazol-1-yl)butyl)-2-furancarboxamide]	96
Cc1ccc(C(=O)N(CCCCn2ccnc2)C2=Nc3cccc4cccc2c34)cc1 [N-(Benz(cd)indol-2-yl)-N-(4-(1H-imidazol-1-yl)butyl)-4-methylbenzamide]	82
O=C(c1ccccc1Cl)N(CCCCn1ccnc1)C1=Nc2cccc3cccc1c23 [N-Benz(cd)indol-2-yl-2-chloro-N-(4-(1-imidazol-1-yl)butyl)benzamide]	80
O=C(c1ccc(Cl)c(Cl)c1)N(CCCCn1ccnc1)C1=Nc2cccc3cccc1c23 [N-Benz(cd)indol-2-yl-3,4-dichloro-N-(4-(1H-imidazol-1-yl)butyl)benzamide]	96
CC(=O)N(CCCn1cncn1)C1=Nc2cccc3cccc1c23 [N-Benz(cd)indol-2-yl-N-(3-(1H-1,2,4-triazol-1-yl)propyl)acetamide]	118
O=C(Nc1ccccc1)N(CCCn1ccnc1)C1=Nc2cccc3cccc1c23 [N-Benz(cd)indol-2-yl-N-(3-(1H-imidazol-1-yl)propyl)-N'-phenylurea]	145
CC(=O)N(CCCn1ccnc1)C1=Nc2cccc3cccc1c23 [N-Benz(cd)indol-2-yl-N-(3-(1H-imidazol-1-yl)propyl)acetamide]	102
O=C(c1cccc(C(F)(F)F)c1)N(CCCCn1ccnc1)C1=Nc2cccc3cccc1c23 [N-Benz(cd)indol-2-yl-N-(4-(1H-imidazol 1-yl)butyl)-3-trifluoromethylbenzamide]	77
O=C(c1cccs1)N(CCCCn1ccnc1)C1=Nc2cccc3cccc1c23 [N-Benz(cd)indol-2-yl-N-(4-(1H-imidazol-1-yl)butyl)-2-thiophenecarboxamide]	86
O=C(c1ccc(F)cc1)N(CCCCn1ccnc1)C1=Nc2cccc3cccc1c23 [N-Benz(cd)indol-2-yl-N-(4-(1H-imidazol-1-yl)butyl)-4-fluorobenzamide]	85
O=C(c1ccccc1)N(CCCCn1ccnc1)C1=Nc2cccc3cccc1c23 [N-Benz(cd)indol-2-yl-N-(4-(1H-imidazol-1-yl)butyl)benzamide]	80
CCCCCCC(=O)N(CCCCn1ccnc1)C1=Nc2cccc3cccc1c23 [N-Benz(cd)indol-2-yl-N-(4-(1H-imidazol-1-yl)butyl)heptanamide]	76
CCCCCC(=O)N(CCCCn1ccnc1)C1=Nc2cccc3cccc1c23 [N-Benz(cd)indol-2-yl-N-(4-(1H-imidazol-1-yl)butyl)hexanamide]	102
CCCCC(=O)N(CCCCn1ccnc1)C1=Nc2cccc3cccc1c23 [N-Benz(cd)indol-2-yl-N-(4-(1H-imidazol-1-yl)butyl)pentanamide]	84
CCC(=O)N(CCCCn1ccnc1)C1=Nc2cccc3cccc1c23 [N-Benz(cd)indol-2-yl-N-(4-(1H-imidazol-1-yl)butyl)propanamide]	83
O=C(c1cccc(C(F)(F)F)c1)N(CCCCc1cccnc1)C1=Nc2cccc3cccc1c23 [N-Benz(cd)indol-2-yl-N-(4-(3-pyridinyl)butyl)-3-trifluoromethylbenzamide]	115
